In patent publication US20130231292A1, “Synergistic anti-proliferation activity of TAS-108 with mTOR inhibitors against cancer cells” (priority 2012, published 2013):
“Also recorded” adds a separate entry of the source. Read-outs that look alike come from different tables or passages of the source.

What was measured:
BT549 = assay: CellTiter-Glo cell viability assay, single agents, three days; format: cell-based; details: Homo sapiens, BT-549, 72 h; for Emax: read-out: Max Inhibition; for GI50: BT549, three days, CellTiter-Glo
HS578T = assay: as above; format: cell-based; details: Homo sapiens, Hs-578T, 72 h; for Emax: read-out: Max Inhibition
MCF7 [1] = assay: as above; format: cell-based; details: Homo sapiens; for Emax: read-out: Max Inhibition
MDAMB231 = assay: as above; format: cell-based; details: Homo sapiens, MDA-MB-231, 72 h; for Emax: read-out: Max Inhibition; for GI50: MDAMB231, three days, CellTiter-Glo
MDAMB468 = assay: as above; format: cell-based; details: Homo sapiens, MDA-MB-468, 72 h; for Emax: read-out: Max Inhibition; for GI50: MDAMB468, three days, CellTiter-Glo
T47D = assay: as above; format: cell-based; details: Homo sapiens, 72 h; for Emax: read-out: Max Inhibition
[2] = tested on: 60 cancer cell lines of different tissues of origin; assay: Non-bias 5x4 checkerboard combination screen of TAS108 with 30 chemotherapeutic agents; format: cell-based
Description: We used 5×4 factorial (checkerboard) design. The combinations were screened against 60 cancer cell lines of different tissues of origin, including melanoma, ovarian, CNS, renal, lung, breast, colon, prostate, and leukemia cancers, represented by cell lines including LOXIMVI, M14,MDAMB468, HT29, NCIH522, HS578T, RPMI8226, HOP92, HL60, OVCAR8, SR, SKMEL2, PC3, HOP62, HCC2998,786O, U251, OVCAR3, NCIH23, T47D, SF295, MOLT4, HCT15, SF539, BT549, SN12C, KM12, ADRRES, A498, NCIH226, NCIH322M, OVCAR5, MALME, OVCAR4, RXF393, SW620, CCRFCEM, UACC62, ACHN, SKOV3, SF268, EKVX, A549, NCIH460, IGROV1, SNB75, UACC257, UO31, HCT116, TK10, K562, SKMEL28, COLO205, SNB19, MDAMB231, DU145, CAKI1, MDAMB435, and MCF7.
After quantifying the degree of synergy for specified doses of compounds within each individual cell line, we used meta analysis to aggregate those effects across doses and the cell line panel (Table 1).

HS 578T = assay: Combination screen of TAS-108 with a second compound, CellTiter-Glo; details: in combination with TAS-108
Description: (§1) Cells were treated with compounds alone or in combination for three days and CellTiter-Glo® Luminescent Cell Viability Assay (Promega Corp.) was used as the endpoint to measure cell viability.
(§2) Cells were cultured in RPMI with 10% fetal bovine serum and used between passage 2 and passage 20.
(§3) Other compounds used were purchased from commercial sources (Sigma, AK Scientific). 40 mM Compound stocks in 100% DMSO were made. Master plates were made with Janus (PerkinElmer), then further diluted and added to the cell plates with Matrix Platemate (Thermo) on Day 0.
(§4) CellTiter-Glo® Luminescent Cell Viability Assay (Promega Corp.) was used to measure ATP as an indicator of viable cells on Day 3 using Envision (PerkinElmer) and back up plate reader Analyst HT (MDS) and Gen5 (BioTek).
(§5) Relative Luminescent Units (RLU) were plotted against corresponding drug concentrations and fitted with a standard four parameter sigmoidal curve with custom coded R program. Percentage growth inhibition is calculated as: [(Ti−Tz)/(C−Tz)]×100 for concentrations for which Ti≧Tz and [(Ti−Tz)/Tz]×100 for concentrations for which Ti<Tz.
(§6) Twenty-five doses were tested for each pair of combinations.
(§7) N: no synergistic effect; Y: synergistic effect; y: weak synergistic effect.

[3] = tested on: human mammary carcinoma cell lines; assay: Combination screen of TAS-108 with a second compound, all six breast lines; details: number of the six breast cell lines with synergy, in combination with TAS-108
Description: as §1, §2, §3, §4, §5, §6, §7

BT-549 = assay: Combination screen of TAS-108 with a second compound, CellTiter-Glo; format: cell-based, human; details: BT-549, in combination with TAS-108
MCF7 [4] = assay: as above; details: MCF7, in combination with TAS-108
Description: as §1, §2, §3, §4, §5, §6, §7

MDA-MB-231 = assay: as above; details: MDA-MB-231, in combination with TAS-108
Description: as §1, §2, §3, §4, §5, §6, §7

MDA-MB-468 = assay: as above; details: MDA-MB-468, in combination with TAS-108
Description: as §1, §2, §3, §4, §5, §6, §7

T-47D = assay: as above; details: in combination with TAS-108
Description: as §1, §2, §3, §4, §5, §6, §7

[5] = tested on: Tamoxifen-sensitive and Tamoxifen-resistant breast carcinomas; details: in vitro and in vivo; cited from earlier work
[6] = tested on: breast carcinoma cells with aromatose inhibitor resistant characteristics; details: aromatase inhibitor resistant characteristics; cited from earlier work
[7] = compared to Tamoxifen; cited from earlier work
[8] = compared to Tamoxifen; cited from earlier work; remark: listed apart in the source
[9] = Phase II clinical trial; cited from earlier work
[10] = HS578T, three days, CellTiter-Glo, read-out: GI50
[11] = 72 h, MCF7, highest dose tested
[12] = 72 h, MCF7, three days, CellTiter-Glo, read-out: GI50
[13] = three days, CellTiter-Glo, read-out: GI50

GI50 (BT549)	GI50 (MCF7 [1]; [12])	GI50 (MDAMB231)	GI50 (MDAMB468)	GI50 (T47D; [13])	Structure (SMILES)	Emax (BT549; BT549, highest dose tested)	Emax (HS578T; HS578T, highest dose tested)	GI50 (HS578T; [10])	Emax (MCF7 [1]; [11])	Emax (MDAMB231; MDAMB231, highest dose tested)	Emax (MDAMB468; MDAMB468, highest dose tested)	Emax (T47D; highest dose tested)	Synergistic effect of TAS 108 paired with compound (HS 578T)	Synergy # [3]	also measured
5800 nM	170 nM	54000 nM	63 nM	52 nM	CO[C@H]1C[C@@H]2CC[C@@H](C)[C@@](O)(O2)C(=O)C(=O)N2CCCC[C@H]2C(=O)O[C@H]([C@H](C)C[C@@H]2CC[C@@H](OCCO)[C@H](OC)C2)CC(=O)[C@H](C)/C=C(\C)[C@@H](O)[C@@H](OC)C(=O)[C@H](C)C[C@H](C)/C=C/C=C/C=C/1C [Everolimus]	100%	41%	63 nM	43%	40%	100%	49%	Y	6	synergy with TAS-108 across the cell line panel (in words) ([2]; in combination with TAS-108): synergy was consistently found; also recorded: significant synergy; ES: synergistic effect size ([2]; in combination with TAS-108, meta analysis across doses and 60 cell lines): 0.037
–	–	–	–	–	C/C=C1\NC(=O)[C@H]2CSSCC/C=C/[C@H](CC(=O)N[C@H](C(C)C)C(=O)N2)OC(=O)[C@H](C(C)C)NC1=O [Romidepsin]	–	–	–	–	–	–	–	–	–	Emax (BT549): 99.8%; GI50 (HS578T): 0.3 nM; Emax (HS578T): 99.6%; GI50 (MCF7 [1]; MCF7, 72 h): 0.44 nM; Emax (MCF7 [1]; MCF7, 72 h): 94%; Emax (MDAMB231): 99.9%; Emax (MDAMB468): 99.8%; GI50 (T47D): 1.1 nM; Emax (T47D): 96.7%
–	–	–	–	–	CNC(=O)c1cc(Oc2ccc(NC(=O)Nc3ccc(Cl)c(C(F)(F)F)c3)cc2)ccn1 [Sorafenib]	–	–	–	–	–	–	–	N	0	Synergistic effect of TAS 108 paired with compound (BT-549): N; Synergistic effect of TAS 108 paired with compound (MCF7 [4]): N; Synergistic effect of TAS 108 paired with compound (MDA-MB-231): N; Synergistic effect of TAS 108 paired with compound (MDA-MB-468): N; Synergistic effect of TAS 108 paired with compound (T-47D): N
13000 nM	10000 nM	9300 nM	1800 nM	11000 nM	CCN(CC)Cc1ccc(OCC[C@H]2CC[C@H]3[C@@H]4[C@H](C)Cc5cc(O)ccc5[C@H]4CC[C@]23C)c(OC)c1 [TAS-108, (7α)-21-[4-[(Diethylamino)methyl]-2-methoxyphenoxy]-7-methyl-19-norpregna-1,3,5(10)-trien-3-ol 2-hydroxy-1,2,3-propanetricarboxylate]	100%	100%	8200 nM	99%	100%	100%	100%	–	–	anti-tumor activity [5]: potent anti-tumor activity; growth of breast carcinoma cells [6]: inhibits the growth; uterotrophic activity [7]: significantly less uterotrophic activity compared to Tamoxifen; bone density [8]: protects against reductions in bone density, similar to Tamoxifen; clinical benefit [9]: provided clinical benefits; tolerability [9]: well tolerated
